{"source": "patent US9605026B2", "about": "“Hydrogen-bond surrogate peptides and peptidomimetics for p53 reactivation” (New York University, priority 2013, dated 2017)", "tested_on": "UMSCC47 cells", "assay": "Apoptosis (Annexin V FACS) in UMSCC47 cells", "assay_type": "cell-based, human", "conditions": "UMSCC47, 10 μM, 24 hours, vs vehicle", "procedure": "FIG. 6A is a western blot showing total and acetylated p53 levels. UMSCC47 cells were treated with control (vehicle), CH1iB (10 μM), cis-platinum (10 μM), or CH1iB (10 μM) and cis-platinum (10 μM) for 24 hours. Cell lysates were immunoblotted with anti-p53 or anti-acetylated[K382]-p53 antibody. FIG. 6B is a graph of p53 transcriptional activity. UMSCC47 cells were co-transfected with a p53 Firefly luciferase reporter plasmid and a control Renilla luciferase plasmid. After 24 hours, cells were treated with control (vehicle), CH1iB (10 μM), cis-platinum (10 μM), or CH1iB (10 μM) and cis-platinum (10 μM) for 24 hours. Firefly luciferase activity was normalized to Renilla luciferase activity to control for transfection efficiency. […] UMSCC47 cells were treated with control (vehicle), CH1iB (10 μM), cis-platinum (10 μM), or CH1iB (10 μM) and cis-platinum (10 μM) for 24 hours. mRNA expression was determined using qPCR with validated TaqMan assays. […] FACS was used to quantitate Annexin V-positive apoptotic cells (left panel). […] Tumorsphere formation efficiency was calculated as the number of tumorspheres (≧50 μm in diameter) formed in 7 days divided by the original number of cells seeded. Tumorsphere diameter was measured using NIS-Elements software. […]\nCell proliferation was assessed using the MTT reagent (Roche Molecular Biochemicals, Nutley, N.J.) to detect metabolic active cells. […]", "data": [{"substance": "XELA*RALDQ-NH2 (ELXRALDQ; HBS: 4-pentenoic acid, N-allylalanine; C-terminal amide; CH1iB) [X 4-pentenoic acid, A* N-allylalanine]", "values": [{"measurement": "enhancement of apoptosis", "result": 353, "unit": "%"}]}]}
